# Test results: US11883391B2, “Compositions and methods for treating inflammatory bowel disease using CCR9 inhibitor and anti-IL-23 blocking antibodies” (ChemoCentryx, Inc., priority 2020, dated 2024)
# How the values were obtained:
# [1] = Trough plasma concentration of compound on day 3 (LC-MS) in the piroxicam-accelerated colitis study; format: in vivo, mice; conditions: trough after the 3rd day of dosing, Compound 1 90 mg/kg SC BID, Compound 2 30 mg/kg SC QD, FIG. 1
# Description: (§1) The mice used were female 6 week old FVBMDR1a(+/+) and FVBMDR1a(−/−). Mice were normalized for body weight (BW) upon reaching 7 weeks of age, at which time their diet was switched to powdered chow containing piroxicam for a total of 10 days. BW and diarrhea score was monitored for 21 days (including the 10 days of piroxicam feeding). Blood was taken for trough compound levels on day 3 and at takedown. Rat IgG levels (anti-IL23 or isotype-matched control) were quantitated by ELISA on terminal blood draw. At takedown, colons were photographed and weight/length ratio calculated. Two colons from each group were formaldehyde fixed for future pathology assessment and disease scoring. Remaining colons from each group were dissociated for flow cytometry analysis of infiltrating immune cells.
# Compound 1 was dosed at 90 mg/kg in 10% Cremophor-EL, SC, BID, and Compound 2 was dosed at 30 mg/kg in 1% HPMC, SC, QD. Vehicle 1 was 10% Cremophor-EL and was administered SC, BID. Vehicle 2 was 1% HPMC administered SC, QD. Anti-mouse IL-23 Clone G23-8 (Rat IgG1) was dosed at 300 μg/mouse, QD/QOD; Isotype-matched control Clone HRPN (Rat IgG1) was dosed at 300 μg/mouse, QD/QOD.
# Blood was taken at trough from all Compound 1- and Compound 2-dosed mice, and plasma analyzed by Liquid Chromatography-Mass Spectroscopy to determine the concentration. Trough blood was taken after the 3rd day of dosing (FIG. 1).
# FVBMDR1a(−/−) mice = test: 21 Day Piroxicam-Accelerated MDR1a−/− Model Of Colitis: colon weight-to-length ratio; format: in vivo; conditions: combined therapy with anti-IL-23; only the combined therapy significantly improved the W:L ratio
# Description: Mice of the FVB strain lacking a functional MDR1 gene (also known as ABCB1, P-gp or CD243) develop a spontaneous infammatory bowel disease. This disease can be accelerated by adding the drug piroxicam to their food. FVB mice bearing a functional MDR1 gene are resistant to this disease.
# Piroxicam is included in the mouse food for ten days, and the health of the mouse is monitored for a total of 21 days both during and after the piroxicam feeding. Symptoms monitored during this time include severity of diarrhea and changes in body weight.
# The colon inflammation manifests itself as a thickening of the colon wall and shortening of the colon itself. The severity of the disease can thus be assessed via the ratio of the colon's weight to its length.
# as §1, with “Two colons from each group were formaldehyde fixed for future pathology assessment and disease scoring. Remaining colons from each group were dissociated for flow cytometry analysis of infiltrating immune cells.” left out
SMILES,Trough plasma concentration vs minimal concentration established for 98% receptor coverage [1],synergy with anti-IL-23 to improve colon inflammation (W:L ratio) (FVBMDR1a(−/−) mice)
CC(C)(C)c1ccc(S(=O)(=O)Nc2ccc(Cl)cc2C(=O)c2cc[n+]([O-])cc2)cc1 [Compound 1],met or exceeded the minimal concentration established for 98% receptor coverage,synergized
Cc1cc(NS(=O)(=O)c2ccc(C(C)(C)C)c(F)c2)n(-c2cccc3nc(N)ccc23)n1 [Compound 2],met or exceeded the minimal concentration established for 98% receptor coverage,synergized
